In US20220009920A1 (GB005, Inc., priority 2020, published 2022) one finds inhibition data, which are given here for three compounds.

What all share (assay): Large panel kinase profiling
Holding throughout (type): biochemical
Conditions in all cases: 1 μM test article, 1 mM ATP

One assay concerns the target PKN2 (Homo sapiens, UniProt Q16513). In short, it runs like this:
(§1)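 Kinase activity was followed with the PhosphoSens CSox-Sensor platform, testing compound at 1 μM in the presence of 1 mM ATP. Reactions ran at 30° C. and fluorescence (Ex 360 nm/Em 485 nm) was read kinetically every 1 min.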

The next assay concerns the target T1, CHEK2/CHK2 (Homo sapiens, UniProt O96017).
T1 construct: AssayQuant Technologies, Inc. (ran the panel)
In short, it runs like this:
as §1

The target of another assay is T2, RPS6KA5/MSK1 (Homo sapiens, UniProt O75582).
T2 construct: AssayQuant Technologies, Inc. (contract assay)
T2 sequence (O75582 whole entry): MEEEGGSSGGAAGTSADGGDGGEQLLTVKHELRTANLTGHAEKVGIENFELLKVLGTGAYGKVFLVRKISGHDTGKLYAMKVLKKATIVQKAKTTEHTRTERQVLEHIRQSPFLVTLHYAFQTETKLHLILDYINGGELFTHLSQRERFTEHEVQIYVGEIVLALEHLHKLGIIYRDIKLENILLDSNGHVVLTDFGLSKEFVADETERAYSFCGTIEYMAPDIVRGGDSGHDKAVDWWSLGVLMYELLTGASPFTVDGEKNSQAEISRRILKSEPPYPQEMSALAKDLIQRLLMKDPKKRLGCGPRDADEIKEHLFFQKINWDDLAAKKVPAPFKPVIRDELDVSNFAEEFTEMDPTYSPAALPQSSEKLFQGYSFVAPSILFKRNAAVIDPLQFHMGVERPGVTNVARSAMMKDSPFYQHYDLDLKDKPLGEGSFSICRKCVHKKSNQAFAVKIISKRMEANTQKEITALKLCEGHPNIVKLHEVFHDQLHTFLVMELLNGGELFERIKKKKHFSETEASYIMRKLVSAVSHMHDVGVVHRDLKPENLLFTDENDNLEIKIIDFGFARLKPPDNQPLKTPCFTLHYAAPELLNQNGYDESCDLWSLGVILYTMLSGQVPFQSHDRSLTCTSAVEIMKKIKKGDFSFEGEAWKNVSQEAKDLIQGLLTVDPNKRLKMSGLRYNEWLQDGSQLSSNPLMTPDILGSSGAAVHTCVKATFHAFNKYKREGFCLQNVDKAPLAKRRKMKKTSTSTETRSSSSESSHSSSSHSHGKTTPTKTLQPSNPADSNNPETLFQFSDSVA
In outline: as §1

A further assay addresses T3, JAK3(JH1) (Homo sapiens, UniProt P52333).
T3 construct: JAK3(JH1)
In outline:
as §1

A further assay concerns the target T4, MET (Homo sapiens, UniProt P08581).
T4 construct: AssayQuant Technologies, Inc. (assay service)
In outline: as §1

The target of the next assay is T5, GRK2 (Homo sapiens, UniProt P25098).
T5 construct: AssayQuant Technologies, Inc. (service provider)
T5 sequence (P25098 1-689): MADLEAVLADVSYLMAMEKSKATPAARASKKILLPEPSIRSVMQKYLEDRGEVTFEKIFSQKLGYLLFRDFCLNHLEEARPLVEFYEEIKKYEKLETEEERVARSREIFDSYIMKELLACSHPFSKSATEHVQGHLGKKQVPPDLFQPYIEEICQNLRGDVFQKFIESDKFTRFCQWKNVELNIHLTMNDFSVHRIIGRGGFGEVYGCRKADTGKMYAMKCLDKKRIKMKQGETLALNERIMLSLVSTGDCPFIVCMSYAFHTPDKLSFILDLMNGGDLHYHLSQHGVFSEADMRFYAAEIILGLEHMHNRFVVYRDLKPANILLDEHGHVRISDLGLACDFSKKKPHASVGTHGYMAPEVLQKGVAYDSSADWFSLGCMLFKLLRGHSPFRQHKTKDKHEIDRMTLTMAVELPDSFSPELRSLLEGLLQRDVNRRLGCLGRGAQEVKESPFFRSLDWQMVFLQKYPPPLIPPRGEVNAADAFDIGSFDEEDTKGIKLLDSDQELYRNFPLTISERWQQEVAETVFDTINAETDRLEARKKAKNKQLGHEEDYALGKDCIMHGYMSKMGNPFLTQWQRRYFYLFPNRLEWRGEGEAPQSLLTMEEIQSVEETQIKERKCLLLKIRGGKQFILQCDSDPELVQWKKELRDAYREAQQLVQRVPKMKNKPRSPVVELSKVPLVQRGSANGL
In short, it runs like this:
as §1

For the next assay, the target named is T6, ITK (Homo sapiens, UniProt Q08881).
T6 sequence (Q08881 1-620): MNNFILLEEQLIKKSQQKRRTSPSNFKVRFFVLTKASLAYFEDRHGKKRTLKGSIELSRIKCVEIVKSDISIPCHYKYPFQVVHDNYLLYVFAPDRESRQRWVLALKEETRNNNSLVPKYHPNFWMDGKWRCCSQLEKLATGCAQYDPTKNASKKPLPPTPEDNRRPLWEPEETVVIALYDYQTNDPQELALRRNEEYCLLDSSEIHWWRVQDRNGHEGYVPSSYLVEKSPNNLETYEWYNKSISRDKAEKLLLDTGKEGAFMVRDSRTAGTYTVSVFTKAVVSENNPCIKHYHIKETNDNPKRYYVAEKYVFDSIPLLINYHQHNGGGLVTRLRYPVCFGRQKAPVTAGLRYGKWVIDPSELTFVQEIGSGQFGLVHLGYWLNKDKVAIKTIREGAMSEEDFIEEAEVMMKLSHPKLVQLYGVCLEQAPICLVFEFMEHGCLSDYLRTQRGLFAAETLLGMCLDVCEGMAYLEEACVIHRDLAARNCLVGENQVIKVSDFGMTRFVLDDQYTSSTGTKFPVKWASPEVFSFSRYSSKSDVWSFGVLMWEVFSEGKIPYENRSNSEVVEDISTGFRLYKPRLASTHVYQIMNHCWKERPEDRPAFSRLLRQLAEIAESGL
In short, it runs like this:
as §1

The target in the next assay is T7, DAPK1 (Homo sapiens, UniProt P53355).
T7 construct: AssayQuant Technologies, Inc. (service laboratory)
T7 sequence (P53355 whole entry, species assumed): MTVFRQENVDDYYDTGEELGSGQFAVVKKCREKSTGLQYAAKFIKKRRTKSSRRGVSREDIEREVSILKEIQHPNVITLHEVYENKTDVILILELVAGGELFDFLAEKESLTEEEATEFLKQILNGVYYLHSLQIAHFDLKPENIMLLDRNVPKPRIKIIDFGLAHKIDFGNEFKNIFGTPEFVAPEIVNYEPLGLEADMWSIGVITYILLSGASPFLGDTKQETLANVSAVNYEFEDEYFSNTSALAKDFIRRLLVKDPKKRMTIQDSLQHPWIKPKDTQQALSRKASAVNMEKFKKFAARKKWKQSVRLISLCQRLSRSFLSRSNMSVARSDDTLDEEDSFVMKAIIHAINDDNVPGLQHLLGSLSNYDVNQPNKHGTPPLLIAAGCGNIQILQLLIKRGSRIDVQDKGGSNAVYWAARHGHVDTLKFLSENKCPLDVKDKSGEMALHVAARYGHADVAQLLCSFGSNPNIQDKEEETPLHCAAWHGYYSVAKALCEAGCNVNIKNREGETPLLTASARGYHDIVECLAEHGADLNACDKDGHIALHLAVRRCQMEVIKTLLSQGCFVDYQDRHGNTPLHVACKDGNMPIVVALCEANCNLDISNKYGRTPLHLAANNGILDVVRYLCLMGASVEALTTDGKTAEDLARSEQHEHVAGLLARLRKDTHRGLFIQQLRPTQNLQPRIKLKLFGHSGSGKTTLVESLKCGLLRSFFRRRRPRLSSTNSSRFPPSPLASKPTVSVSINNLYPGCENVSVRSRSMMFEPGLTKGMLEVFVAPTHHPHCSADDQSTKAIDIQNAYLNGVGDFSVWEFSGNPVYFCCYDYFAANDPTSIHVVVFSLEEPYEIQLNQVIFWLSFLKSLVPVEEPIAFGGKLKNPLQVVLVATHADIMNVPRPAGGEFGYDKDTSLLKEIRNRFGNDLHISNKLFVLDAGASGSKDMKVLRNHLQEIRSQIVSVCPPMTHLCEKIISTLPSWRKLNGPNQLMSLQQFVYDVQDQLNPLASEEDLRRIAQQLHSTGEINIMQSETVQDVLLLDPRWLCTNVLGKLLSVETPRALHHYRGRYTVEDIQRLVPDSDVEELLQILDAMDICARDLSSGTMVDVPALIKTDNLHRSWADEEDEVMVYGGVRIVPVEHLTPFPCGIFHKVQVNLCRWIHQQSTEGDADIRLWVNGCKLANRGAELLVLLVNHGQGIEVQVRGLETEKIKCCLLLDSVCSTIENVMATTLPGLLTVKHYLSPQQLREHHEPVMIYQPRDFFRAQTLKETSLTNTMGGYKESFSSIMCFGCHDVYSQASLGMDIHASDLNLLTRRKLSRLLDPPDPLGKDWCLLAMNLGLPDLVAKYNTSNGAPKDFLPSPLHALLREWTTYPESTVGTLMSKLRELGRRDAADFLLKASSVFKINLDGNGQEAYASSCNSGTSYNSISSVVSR
In short, it runs like this:
as §1

A further assay deals with T8, INSR (Homo sapiens, UniProt P06213).
T8 construct: AssayQuant Technologies, Inc. (service provider)
T8 sequence (P06213 28-1382, species assumed): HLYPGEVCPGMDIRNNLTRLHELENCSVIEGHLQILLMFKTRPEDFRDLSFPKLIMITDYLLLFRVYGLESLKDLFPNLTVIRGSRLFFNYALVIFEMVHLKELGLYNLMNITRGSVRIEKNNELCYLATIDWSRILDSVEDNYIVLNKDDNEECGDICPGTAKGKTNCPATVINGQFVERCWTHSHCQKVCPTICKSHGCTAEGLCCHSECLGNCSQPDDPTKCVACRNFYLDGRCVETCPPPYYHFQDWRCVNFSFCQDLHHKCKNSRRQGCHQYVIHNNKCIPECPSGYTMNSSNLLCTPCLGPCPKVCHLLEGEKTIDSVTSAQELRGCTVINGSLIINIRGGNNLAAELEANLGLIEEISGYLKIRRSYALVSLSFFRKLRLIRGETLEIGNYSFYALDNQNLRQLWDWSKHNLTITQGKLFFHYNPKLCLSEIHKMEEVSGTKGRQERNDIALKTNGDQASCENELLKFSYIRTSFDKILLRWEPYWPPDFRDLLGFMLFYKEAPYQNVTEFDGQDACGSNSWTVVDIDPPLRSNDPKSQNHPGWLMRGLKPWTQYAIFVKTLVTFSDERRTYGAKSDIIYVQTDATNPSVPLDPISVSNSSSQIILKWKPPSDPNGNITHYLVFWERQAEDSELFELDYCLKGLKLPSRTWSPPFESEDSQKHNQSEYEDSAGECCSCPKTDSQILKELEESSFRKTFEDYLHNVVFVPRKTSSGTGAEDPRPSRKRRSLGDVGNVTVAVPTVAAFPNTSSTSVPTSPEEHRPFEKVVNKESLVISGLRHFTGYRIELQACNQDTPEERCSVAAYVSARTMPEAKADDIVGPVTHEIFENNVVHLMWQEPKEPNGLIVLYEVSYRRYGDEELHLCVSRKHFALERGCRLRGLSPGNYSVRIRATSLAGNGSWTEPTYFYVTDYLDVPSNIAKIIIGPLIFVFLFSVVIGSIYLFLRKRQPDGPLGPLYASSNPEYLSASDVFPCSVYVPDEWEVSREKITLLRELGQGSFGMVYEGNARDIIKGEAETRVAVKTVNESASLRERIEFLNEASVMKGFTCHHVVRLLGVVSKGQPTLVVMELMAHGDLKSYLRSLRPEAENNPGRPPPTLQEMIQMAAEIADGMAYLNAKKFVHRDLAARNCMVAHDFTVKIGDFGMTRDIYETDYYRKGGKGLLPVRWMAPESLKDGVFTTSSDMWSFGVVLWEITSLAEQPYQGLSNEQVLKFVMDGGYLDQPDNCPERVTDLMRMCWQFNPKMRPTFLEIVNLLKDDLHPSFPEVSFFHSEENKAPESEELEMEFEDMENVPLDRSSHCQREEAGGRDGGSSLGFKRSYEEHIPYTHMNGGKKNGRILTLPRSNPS
In short, it runs like this:
as §1

Molecules are shown by their SMILES.

T4 sequence (P08581 25-1390): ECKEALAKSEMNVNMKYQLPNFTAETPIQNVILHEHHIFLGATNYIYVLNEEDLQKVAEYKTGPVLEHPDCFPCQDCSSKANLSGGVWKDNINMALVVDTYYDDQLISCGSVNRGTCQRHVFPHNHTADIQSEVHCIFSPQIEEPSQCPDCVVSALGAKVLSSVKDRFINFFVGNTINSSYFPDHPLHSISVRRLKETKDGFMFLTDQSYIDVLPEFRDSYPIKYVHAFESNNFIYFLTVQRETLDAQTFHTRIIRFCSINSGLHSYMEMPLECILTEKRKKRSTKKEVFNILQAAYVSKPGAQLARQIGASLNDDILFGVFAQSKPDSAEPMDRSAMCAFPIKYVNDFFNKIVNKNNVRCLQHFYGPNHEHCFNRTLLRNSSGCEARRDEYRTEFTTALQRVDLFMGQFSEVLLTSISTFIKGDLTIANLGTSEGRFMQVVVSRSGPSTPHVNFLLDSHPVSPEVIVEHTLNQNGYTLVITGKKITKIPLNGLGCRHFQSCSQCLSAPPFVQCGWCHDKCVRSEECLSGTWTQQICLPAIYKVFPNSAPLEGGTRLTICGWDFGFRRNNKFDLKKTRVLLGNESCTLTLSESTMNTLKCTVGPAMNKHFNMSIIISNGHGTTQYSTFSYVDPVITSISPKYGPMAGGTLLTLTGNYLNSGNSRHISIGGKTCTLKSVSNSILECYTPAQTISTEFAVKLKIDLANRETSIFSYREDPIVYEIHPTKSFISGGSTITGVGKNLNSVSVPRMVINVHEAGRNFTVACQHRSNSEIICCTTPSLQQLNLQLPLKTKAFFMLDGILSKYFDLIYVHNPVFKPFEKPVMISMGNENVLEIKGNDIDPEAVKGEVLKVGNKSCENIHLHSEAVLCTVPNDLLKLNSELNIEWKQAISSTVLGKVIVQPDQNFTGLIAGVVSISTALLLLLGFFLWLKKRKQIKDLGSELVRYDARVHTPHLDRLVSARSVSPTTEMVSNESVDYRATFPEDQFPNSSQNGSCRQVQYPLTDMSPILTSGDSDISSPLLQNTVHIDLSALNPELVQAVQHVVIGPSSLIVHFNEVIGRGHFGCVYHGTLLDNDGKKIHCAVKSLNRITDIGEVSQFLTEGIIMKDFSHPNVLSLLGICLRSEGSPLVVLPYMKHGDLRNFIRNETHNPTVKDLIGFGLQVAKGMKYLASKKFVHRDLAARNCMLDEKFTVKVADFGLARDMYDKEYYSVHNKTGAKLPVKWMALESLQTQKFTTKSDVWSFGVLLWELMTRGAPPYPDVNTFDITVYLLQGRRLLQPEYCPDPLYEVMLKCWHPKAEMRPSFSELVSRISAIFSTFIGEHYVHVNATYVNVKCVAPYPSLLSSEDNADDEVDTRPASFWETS

On to `C=CC(=O)N1CCC[C@@H](c2c(F)cc(C(N)=O)c3[nH]c4c(c23)CCC4)C1` [Compound 10-2, (S)-8-(1-acryloylpiperidin-3-yl)-7-fluoro-1,2,3,4-tetrahydrocyclo-penta[b]indole-5-carboxamide], for which the inhibition at 1 µM on PKN2 was 7.5%; on CHEK2/CHK2 it was -9.2%; against RPS6KA5/MSK1, -14.5%; against JAK3(JH1), 2.4%; on MET, 28.1%; against GRK2 it was -1.6%. Moreover, the figures for the inhibition at 1 µM on ITK, against DAPK1 and on INSR were 12.2%, -20.3% and -6%, respectively.
For the compound `C=CC(=O)N1CCCC(c2c(F)cc(C(N)=O)c3[nH]c4c(c23)CCCCC4)C1` (single isomer, unassigned) [Compound 5-6], the inhibition at 1 µM against PKN2 is 0.7%; at CHEK2/CHK2 it was 0.6%; at RPS6KA5/MSK1, -20.7%; on JAK3(JH1), 2%; against MET, 12%; at GRK2 it was -14.8%. The figures for the inhibition at 1 µM at ITK, against DAPK1 and against INSR were 44.8%, 8.1% and 10.3%, respectively.
For the compound `C=CC(=O)N1CCC[C@@H](c2c(F)cc(C(N)=O)c3[nH]c4c(c23)CC2(CC4)CC2)C1` [Compound 6-2, (S)-5-(1-acryloylpiperidin-3-yl)-6-fluoro-1,2,4,9-tetrahydrospiro[carbazole-3,1′-cyclopropane]-8-carboxamide], the inhibition at 1 µM on PKN2 was 16.2%; against CHEK2/CHK2, -14.1%; against RPS6KA5/MSK1, -4.2%; against JAK3(JH1) it was 12.5%; against MET, 18.9%; at GRK2 it was -10.5%. Besides, the inhibition at 1 µM is 29.2% at ITK, 22.1% at DAPK1 and -6.6% on INSR.
